Results: ChEMBL document CHEMBL5705884, “Breaching the DNA damage checkpoint via PF-00477736, a novel small-molecule inhibitor of checkpoint kinase 1” (Mol Cancer Ther, 2008)
Calls of active or inactive are those of the source. The rule behind the calls is not given here.

Experiments:
COLO 205 [1] = assay: Antitumor activity against human COLO 205 cells xenografted in athymic nude mouse model assessed as tumor growth inhibition at 30 mg/kg, ip administered twice daily in presence of gemcitabine (Gemcitabine alone = 40%); type: functional; details: read-out: TGI
HT-29 [2] = assay: Potentiation of camptothecin induced cytotoxicity in human HT-29 cells assessed as cell survival at 540 nM measured after 4 to 48 hrs by coulter counter method relative to camptothecin alone; type: functional; details: time 4-48 hrs, read-out: Activity
COLO 205 [3] = assay: Antitumor activity against human COLO 205 cells xenografted in athymic nude mouse model assessed as gross log cell kill at 30 mg/kg, ip administered once daily in presence of gemcitabine (Gemcitabine alone = 0.27%); type: functional
MDA-MB-231 = assay: Antiproliferative activity against human MDA-MB-231 cells deficit of p53 expression assessed as inhibition of cell growth measured after 96 hrs by MTT assay; type: functional, cell-based; details: MDA-MB-231, 96 h
[4] = Terminal half life in Sprague-Dawley rat at 4 mg/kg, iv administered as bolus dose by LCMS analysis; type: ADME, organism-based; details: in vivo, read-out: beta t1/2 (converted)
HT-29 [5] = assay: Inhibition of gemcitabine induced cell cycle arrest in human HT-29 cells assessed as increase in G0-G1 cell population pretreated with gemcitabine followed by compound treatment and measured after 10 to 48 hrs by flow cytometry analysis; type: functional, cell-based; details: time 10-48 hrs
HT-29 [6] = assay: Potentiation of gemcitabine induced cytotoxicity in human HT-29 cells assessed as cell survival at 360 nM measured after 4 to 48 hrs by coulter counter method relative to gemcitabine alone; type: functional; details: time 4-48 hrs, read-out: Activity
[7] = Toxicity in athymic nude mouse assessed as effect on body weight at 4 to 20 mg/kg, ip administered once daily in presence of gemcitabine; type: organism-based; details: in vivo, dose 4-20 mg/kg
COLO 205 [8] = assay: Antitumor activity against human COLO 205 cells xenografted in athymic nude mouse model assessed as tumor growth delay by measuring test to control tumor ratio at 15 mg/kg, ip administered once daily in presence of gemcitabine (Gemcitabine alone = 3%); type: functional
[9] = AUC (0 to infinity) in nu/nu mouse at 4 mg/kg, ip by LCMS analysis; type: ADME, organism-based; details: in vivo
COLO 205 [10] = assay: Antitumor activity against human COLO 205 cells xenografted in athymic nude mouse model assessed as tumor growth inhibition at 40 mg/kg, ip administered twice daily in presence of gemcitabine (Gemcitabine alone= 58%); type: functional; details: read-out: TGI
PC-3 [11] = assay: Potentiation factor, ratio of IC50 for human PC-3 cells to IC50 for human PC-3 cells in presence of SN-38; type: functional
K562 [12] = assay: Potentiation factor, ratio of IC50 for human K562 cells to IC50 for human K562 cells in presence of doxorubicin; type: functional
COLO 205 [13] = assay: Antitumor activity against human COLO 205 cells xenografted in athymic nude mouse model assessed as gross log cell kill at 4 mg/kg, ip administered twice daily in presence of gemcitabine (Gemcitabine alone = 0.5%); type: functional
COLO 205 [14] = assay: Antitumor activity against human COLO 205 cells xenografted in athymic nude mouse model assessed as tumor growth inhibition at 4 mg/kg, ip administered twice daily in presence of gemcitabine (Gemcitabine alone= 58%); type: functional; details: read-out: TGI
[15] = AUC (0 to infinity) in Sprague-Dawley rat at 4 mg/kg, iv administered as bolus dose by LCMS analysis; type: ADME, organism-based; details: in vivo
COLO 205 [16] = assay: Antitumor activity against human COLO 205 cells xenografted in athymic nude mouse model assessed as tumor growth inhibition at 4 mg/kg, ip administered once daily in presence of gemcitabine (Gemcitabine alone= 58%); type: functional; details: read-out: TGI
[17] = Cmax in nu/nu mouse at 4 mg/kg, ip by LCMS analysis; type: ADME, organism-based; details: in vivo
COLO 205 [18] = assay: Potentiation factor, ratio of IC50 for human COLO 205 cells to IC50 for human COLO 205 cells in presence of gemcitabine; type: functional
[19] = biological target: Macrophage colony-stimulating factor 1 receptor (Homo sapiens, UniProt P07333); assay: Inhibition of Fms (unknown origin)
COLO 205 [20] = assay: Antitumor activity against human COLO 205 cells xenografted in athymic nude mouse model assessed as tumor growth delay by measuring test to control tumor ratio at 7.5 mg/kg, ip administered twice daily in presence of gemcitabine (Gemcitabine alone = 3%); type: functional
K562 [21] = assay: Potentiation factor, ratio of IC50 for human K562 cells to IC50 for human K562 cells in presence of gemcitabine; type: functional
[22] = AUC (0 to infinity) in nu/nu mouse at 40 mg/kg, ip by LCMS analysis; type: ADME, organism-based; details: in vivo
PC-3 [23] = assay: Potentiation factor, ratio of IC50 for human PC-3 cells to IC50 for human PC-3 cells in presence of gemcitabine; type: functional
COLO 205 [24] = assay: Antitumor activity against human COLO 205 cells xenografted in athymic nude mouse model assessed as potentiated tumor growth inhibition at 30 mg/kg, ip administered twice daily in presence of gemcitabine relative to control; type: functional; details: read-out: TGI
COLO 205 [25] = assay: Antitumor activity against human COLO 205 cells xenografted in athymic nude mouse model assessed as tumor growth inhibition at 15 mg/kg, ip administered twice daily in presence of gemcitabine (Gemcitabine alone = 40%); type: functional; details: read-out: TGI
COLO 205 [26] = assay: Antitumor activity against human COLO 205 cells xenografted in athymic nude mouse model assessed as gross log cell kill at 7.5 mg/kg, ip administered twice daily in presence of gemcitabine (Gemcitabine alone = 0.27%); type: functional

Sequence of Macrophage colony-stimulating factor 1 receptor (P07333 whole entry): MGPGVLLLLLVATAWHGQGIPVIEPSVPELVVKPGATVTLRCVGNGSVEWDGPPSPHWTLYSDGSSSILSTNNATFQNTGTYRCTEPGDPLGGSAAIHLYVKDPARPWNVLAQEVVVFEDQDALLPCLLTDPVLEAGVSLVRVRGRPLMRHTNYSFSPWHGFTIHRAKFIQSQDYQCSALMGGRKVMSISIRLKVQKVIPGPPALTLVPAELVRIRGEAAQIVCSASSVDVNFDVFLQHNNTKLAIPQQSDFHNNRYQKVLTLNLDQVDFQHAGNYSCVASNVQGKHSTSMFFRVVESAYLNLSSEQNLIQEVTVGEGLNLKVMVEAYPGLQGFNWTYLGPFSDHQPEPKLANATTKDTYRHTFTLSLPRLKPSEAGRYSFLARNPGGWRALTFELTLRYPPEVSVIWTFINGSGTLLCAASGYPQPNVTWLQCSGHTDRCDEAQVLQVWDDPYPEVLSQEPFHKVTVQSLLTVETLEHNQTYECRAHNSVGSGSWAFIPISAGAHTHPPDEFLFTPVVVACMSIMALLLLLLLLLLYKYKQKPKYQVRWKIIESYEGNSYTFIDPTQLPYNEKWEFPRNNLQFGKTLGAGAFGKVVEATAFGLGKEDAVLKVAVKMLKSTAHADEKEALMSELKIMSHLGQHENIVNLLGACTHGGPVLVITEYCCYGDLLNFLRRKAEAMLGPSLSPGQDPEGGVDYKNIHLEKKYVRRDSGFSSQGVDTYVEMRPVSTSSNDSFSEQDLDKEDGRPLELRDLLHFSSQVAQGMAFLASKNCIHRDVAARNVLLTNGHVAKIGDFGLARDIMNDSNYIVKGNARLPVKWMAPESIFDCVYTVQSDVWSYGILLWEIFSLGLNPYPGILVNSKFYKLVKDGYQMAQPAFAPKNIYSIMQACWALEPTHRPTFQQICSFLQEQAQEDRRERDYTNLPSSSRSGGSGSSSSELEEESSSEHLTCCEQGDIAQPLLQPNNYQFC

Cn1cc(-c2[nH]c3cc(NC(=O)[C@H](N)C4CCCCC4)cc4c3c2C=NNC4=O)cn1
inhibition in vivo at 30 mg/kg (COLO 205 [1]): 78%
viability at 0.54 µM (HT-29 [2]): 78%
LCK (COLO 205 [3]): 0.66
IC50 (MDA-MB-231): 1400 nM
half-life [4]: 2.9 h
inhibition (HT-29 [5]): Active
viability at 0.36 µM (HT-29 [6]): 71%
Activity [7]: Non-Toxic
T/C (COLO 205 [8]): 7.75
AUC(0-inf) [9]: 490 ng·h/mL
inhibition in vivo at 40 mg/kg (COLO 205 [10]): 90%
PF50 (PC-3 [11]): 1.3
PF50 (K562 [12]): 1.1
LCK (COLO 205 [13]): 0.5
inhibition in vivo at 4 mg/kg (COLO 205 [14]): 63%
AUC(0-inf) [15]: 5720 ng·h/mL
inhibition in vivo at 4 mg/kg (COLO 205 [16]): 58%
Cmax [17]: 270 ng/mL
PF50 (COLO 205 [18]): 11.3
IC50 [19]: 20 nM
T/C (COLO 205 [20]): 13.25
PF50 (K562 [21]): 5.6
AUC(0-inf) [22]: 25800 ng·h/mL
PF50 (PC-3 [23]): 12.2
inhibition in vivo at 30 mg/kg (COLO 205 [24]): 64%
inhibition in vivo at 15 mg/kg (COLO 205 [25]): 66%
LCK (COLO 205 [26]): 1.21
